Experiment: Iron dialysability assay (in vitro dialysable iron from fortified dough)
Settings: dough from whole-grain wheat flour fortified with 50 mg/kg iron; normalized to dough fortified with ferrous sulfate; means of 4-5 experiments; ** = significantly different from ferrous sulfate (p < 0.05)
Description: The crude mass was aliquoted and small lumps were formed (10 g±0.5 g) which were used for the iron dialysability assay.
All glassware and paddles were cleaned with 10% HNO3 (24 hours) and rinsed five times with Milli-Q® water. […] The resulting suspension was poured into a VanKel Vial and the blender beaker was rinsed twice with Milli-Q® water (20 mL) and the rinse water was added to the suspension. The stirring speed of the paddle was adjusted to 200 rpm at 37° C. […] The pH of the suspension was adjusted to 2.0 with 6N HCl and a Pepsin-HCl solution (5 mL) was added. […] A clean dialysis membrane (20 cm, Spectra/Por7, Molecular weight cut-off 8 kD) was filled with a determined amount of 0.1M NaCO3 solution and adjusted to a total volume of 25 mL with Milli-Q® water. The dialysis bag was placed in the Erlenmeyer flask containing aliquot (iii), and shaken at 37° C. at 100 beats/min for 30 minutes while the pH was being monitored. […] After that time, the contents of the dialysis bag were recovered for quantitative analysis of the iron content.
Total iron content of yeast and wheat flour was determined by inductively coupled plasma atomic emission spectrometry. […] The emission of the individual elements was measured at specific wavelengths and concentrations were quantified from standard solutions. […]

Question: For `O=S(=O)([O-])[O-].[Fe+2]` [Iron sulphate], which Relative availability is on record?
Answer: Its Relative availability is 1.0.
